# Assay results reported in patent publication US9624249B2, “Nucleoside kinase bypass compositions and methods” (Merck Sharp & Dohme Corp., priority 2013, dated 2017).
# Read-outs that look alike come from different tables or passages of the source.
# What was measured:
# Format in all cases: cell-based
# Tox: EdU/CellCount CC50 = experiment: Tox: EdU/CellCount CC50
# [1] = test system: hepatitis virus C (HCV) genotype 1a; experiment: HCV subgenomic replicon assay (RHEPTAQ), genotype 1a; conditions: Hepatitis C virus, Table 4, genotype 1a; read-out: Replicon: EC50 (1a)
# Excerpt: (§1) Table 3 and Table 4 summarize the measured activities of these prodrugs as assessed in a subgenomic replicon assay (RHEPTAQ), against genotypes 1a, 1b and 2a.
# [2] = test system: hepatitis virus C (HCV) genotype 1c; experiment: HCV replicon, genotype printed as 1c; conditions: read-out: Replicon: EC50 (1c)
# [3] = test system: hepatitis virus C (HCV) genotype 1b; experiment: HCV subgenomic replicon assay (RHEPTAQ), genotype 1b; conditions: Hepatitis C virus, Table 4, genotype 1b; read-out: Replicon: EC50 (1b)
# Excerpt: as §1
compound,measurement,setting,value
C[C@@]1(F)[C@@H]2OP(=O)(OC3CSSC[C@@H]3OCc3ccccc3)OCC2O[C@H]1n1ccc(=O)[nH]c1=O (some centres unmarked),CC50,"Tox: EdU/CellCount CC50; CellCount readout, read-out: Tox: CellCount CC50",85 µM
same,CC50,"Tox: EdU/CellCount CC50; EdU readout, read-out: Tox: EdU CC50",30 µM
same,EC50,[1],0.092 µM
same,EC50,[2],0.101 µM
same,EC50,[3],0.107 µM
